Data published in patent US11034658B2, “Pyridinyl pyrazoles as modulators of RORγT” (Janssen Pharmaceutica NV, priority 2018, dated 2021).

Key:
[1] = molecular target: human RORγt ligand binding domain (RORγt LBD) (Homo sapiens (Human), UniProt P51449); assay: RORγt ThermoFluor assay
Source text: ThermoFluor® is a fluorescence based assay that estimates ligand binding affinities by measuring the effect of a ligand on protein thermal stability (Pantoliano, M. W., Petrella, E. C., Kwasnoski, J. D., Lobanov, V. S., Myslik, J., Graf, E., Carver, T., Asel, E., Springer, B. A., Lane, P., and Salemme, F. R. (2001) High-density miniaturized thermal shift assays as a general strategy for drug discovery. J Biomol Screen 6, 429-40, and Matulis, D., Kranz, J. K., Salemme, F. R., and Todd, M. J. (2005) Thermodynamic stability of carbonic anhydrase: measurements of binding affinity and stoichiometry using ThermoFluor. Biochemistry 44, 5258-66). This approach is applicable to a wide variety of systems, and rigorous in theoretical interpretation through quantitation of equilibrium binding constants (KD).
The shift in the melting point described as a ΔTm is proportional to the concentration and affinity of the ligand. The compound potency may be compared as a rank order of either values at a single compound concentration or in terms of KD values, estimated from concentration response curves.
RORγt ThermoFluor® Assay Construct
For the RORγt construct used in the ThermoFluor® assay, numbering for the nucleotide sequences was based on the reference sequence for human RORγt, transcript variant 2, NCBI Accession: NM 001001523.1 (SEQ ID NO:1). Nucleotides 850-1635 (SEQ ID NO:2) coding for the wild type human RORγt ligand binding domain (RORγt LBD) were cloned into the pHIS1 vector, a modified pET E. coli expression vector (Accelagen, San Diego), containing an in-frame N-terminal His-tag and a TurboTEV protease cleavage site (ENLYFQG, SEQ ID NO:3) upstream of the cloned insert sequence. The amino acid sequence for the RORγt construct used in the Thermofluor® assay is shown as SEQ ID NO:4.
ThermoFluor® experiments were carried out using instruments owned by Janssen Research and Development, L.L.C. through its acquisition of 3-Dimensional Pharmaceuticals, Inc. 1,8-ANS (Invitrogen) was used as a fluorescent dye. Protein and compound solutions are dispensed into black 384-well polypropylene PCR microplates (Abgene) and overlayed with silicone oil (1 μL, Fluka, type DC 200) to prevent evaporation.
Bar-coded assay plates are robotically loaded onto a thermostatically controlled PCR-type thermal block and then heated at a typical ramp-rate of 1° C./min for all experiments. Fluorescence was measured by continuous illumination with UV light (Hamamatsu LC6) supplied via fiber optic and filtered through a band-pass filter (380-400 nm; >6 OD cutoff). Fluorescence emission of the entire 384-well plate was detected by measuring light intensity using a CCD camera (Sensys, Roper Scientific) filtered to detect 500±25 nm, resulting in simultaneous and independent readings of all 384 wells. Images were collected at each temperature, and the sum of the pixel intensity in a given area of the assay plate was recorded versus temperature. Reference wells contained RORγt without compounds, and the assay conditions were as follows:
Project compounds were arranged in a pre-dosed mother plate (Greiner Bio-one) wherein compounds are serially diluted in 100% DMSO by 1:2 from a high concentration of 10 mM over 12 columns within a series (column 12 is a reference well containing DMSO, no compound). The compounds were robotically dispensed directly into assay plates (1×=46 nL) using a Hummingbird capillary liquid handling instrument (Digilab). Following compound dispense, protein and dye in buffer was added to achieve the final assay volume of 3 μL, followed by 1 μL of silicone oil.
The binding affinity was estimated as described previously (Matulis, D., Kranz, J. K., Salemme, F. R., and Todd, M. J. (2005) Thermodynamic stability of carbonic anhydrase: measurements of binding affinity and stoichiometry using ThermoFluor®. Biochemistry 44, 5258-66) using the following thermodynamic parameters of protein unfolding:
Reference RORγt Tm: 47.8° C.

[2] = molecular target: full-length human RORγt (GAL4-DBD-RORγt fusion) in HEK293T cells (Homo sapiens (Human), UniProt P51449); assay: RORγt (full-length human) reporter assay, conditions A or B; type: cell-based; conditions: for IC50: HEK293T cells, read-out: RORγt (FL) Reporter Assay A or B, IC50; for inhibition at 3 µM: 3 μM compound concentration (footnote *), read-out: RORγt (FL) Reporter Assay A or B, % inhibition
Method: RORγt (Full-Length Human) Reporter Assay:
(§1) HEK293T cells were plated at 35,000 per well in 96-well plate in medium of DMEM with 10% FBS. […] After overnight (16 to 20 hours) incubation, media were removed and cells were lysed with 50 μL Glo Lysis Buffer (Promega) for 10-15 minutes followed by 10 minute incubation with 50 μL Dual Glo reagent (Promega) at room temperature. Firefly luciferase luminescence was measured using a BMG Pherastar plate reader. To each well, 50 μL Stop and Glo reagent was added and incubated for 10 minutes at room temperature. Renilla luminescence was measured using a BMG Pherastar plate reader. To calculate the effect of compounds on RORγt activity, firefly values were normalized against values of DMSO only and values of reference compound at saturating concentration, then further normalized against Renilla signals. IC50s were generated by plotting final Renilla normalized data against compound concentration and percent inhibition was calculated against DMSO control.
as §1, with “at 8750 cells” for “at 35,000”, “in 384-well” for “in 96-well”, “with 20” for “with 50”, “well, 20” for “well, 50”

full-length human RORγt (GAL4-DBD-RORγt fusion) in HEK293T cells, sequence (P51449 other isoform, or with tags, fused parts or gaps): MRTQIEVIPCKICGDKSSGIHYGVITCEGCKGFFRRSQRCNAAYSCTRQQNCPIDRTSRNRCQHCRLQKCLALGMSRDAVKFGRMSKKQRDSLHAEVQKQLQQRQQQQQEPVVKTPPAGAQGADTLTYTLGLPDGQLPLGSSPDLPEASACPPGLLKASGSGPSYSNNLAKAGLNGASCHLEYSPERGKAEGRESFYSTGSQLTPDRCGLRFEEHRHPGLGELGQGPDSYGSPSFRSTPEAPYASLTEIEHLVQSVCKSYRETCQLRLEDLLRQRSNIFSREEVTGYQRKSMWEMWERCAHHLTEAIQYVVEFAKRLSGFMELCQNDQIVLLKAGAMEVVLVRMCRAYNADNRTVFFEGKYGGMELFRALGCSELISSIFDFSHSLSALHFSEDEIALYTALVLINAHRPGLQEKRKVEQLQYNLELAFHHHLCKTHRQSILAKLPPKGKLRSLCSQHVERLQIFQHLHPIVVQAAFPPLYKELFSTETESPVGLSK
human RORγt ligand binding domain (RORγt LBD), sequence (P51449 other isoform, or with tags, fused parts or gaps): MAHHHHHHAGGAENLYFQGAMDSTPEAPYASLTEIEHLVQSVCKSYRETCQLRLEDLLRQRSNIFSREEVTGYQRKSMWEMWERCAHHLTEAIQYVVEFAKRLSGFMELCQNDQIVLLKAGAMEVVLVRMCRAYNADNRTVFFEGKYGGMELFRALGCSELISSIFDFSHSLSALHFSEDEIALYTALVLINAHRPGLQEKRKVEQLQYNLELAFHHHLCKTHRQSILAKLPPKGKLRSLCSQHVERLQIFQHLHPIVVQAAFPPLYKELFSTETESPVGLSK

Kd [1] [µM]	IC50 [2] [µM]	inhibition at 3 µM ([2]; HEK-293T) [%]	inhibition at 6 µM ([2]; HEK-293T, 6 μM compound, read-out: RORγt (FL) Reporter Assay A or B, % inhibition @ 6 μM) [%]	SMILES
0.0081	0.063	105	–	CCn1nc(C(=O)NC[C@]2(O)CC[C@@H](S(C)(=O)=O)C[C@H]2O)c(Cl)c1-c1cnc(CC(C)(C)C(F)(F)F)cc1OC(F)F (stereo in doubt) [Example 3, 4-Chloro-5-(4-(difluoromethoxy)-6-(3,3,3-trifluoro-2,2-dimethylpropyl)pyridin-3-yl)-N-(((1R*,2R*,4R*)-1,2-dihydroxy-4-(methylsulfonyl)cyclohexyl)methyl)-1-ethyl-1H-pyrazole-3-carboxamide]
0.035	0.43	95	–	CCn1nc(C(=O)NC[C@]2(O)CC[C@@H](S(C)(=O)=O)CC2)c(C)c1-c1cnc(CC(C)(C)C(F)F)cc1OC(F)F [Example 42, 5-(6-(3,3-Difluoro-2,2-dimethylpropyl)-4-(difluoromethoxy)pyridin-3-yl)-1-ethyl-N-(((1s,4s)-1-hydroxy-4-(methylsulfonyl)cyclohexyl)methyl)-4-methyl-1H-pyrazole-3-carboxamide]
0.02	0.033	104	–	CCn1nc(C(=O)NC[C@]2(O)CC[C@@H](S(C)(=O)=O)CC2)c(Cl)c1-c1cnc(OCC(C)(C)C(F)(F)F)cc1OC [Example 36, 4-Chloro-1-ethyl-N-(((1s,4s)-1-hydroxy-4-(methylsulfonyl)cyclohexyl)methyl)-5-(4-methoxy-6-(3,3,3-trifluoro-2,2-dimethylpropoxy)pyridin-3-yl)-1H-pyrazole-3-carboxamide]
0.047	0.13	20	–	CCn1nc(C(=O)NC[C@]2(O)CC[C@@H](S(C)(=O)=O)CC2)c(Cl)c1-c1cnc(CC(C)(C)C(F)(F)F)cc1C(F)F [Example 27, 4-Chloro-5-(4-(difluoromethyl)-6-(3,3,3-trifluoro-2,2-dimethylpropyl)pyridin-3-yl)-1-ethyl-N-(((1s,4s)-1-hydroxy-4-(methylsulfonyl)cyclohexyl)methyl)-1H-pyrazole-3-carboxamide]
0.012	0.098	71	–	CCn1nc(C(=O)NC[C@]2(O)CC[C@@H](S(C)(=O)=O)CC2)c(Cl)c1-c1cnc(C[C@H](C)C(F)(F)F)cc1OC(F)F (single isomer, unassigned) [Example 15, 4-Chloro-5-(4-(difluoromethoxy)-6-((S*)-3,3,3-trifluoro-2-methylpropyl)pyridin-3-yl)-1-ethyl-N-(((1s,4R)-1-hydroxy-4-(methylsulfonyl)cyclohexyl)methyl)-1H-pyrazole-3-carboxamide]
0.015	0.22	88	–	CCn1nc(C(=O)NC[C@]2(O)CC[C@@H](S(C)(=O)=O)CC2)c(Cl)c1-c1cnc(CC(C)(C)C(F)F)cc1OC(F)F [Example 38, 4-Chloro-5-(6-(3,3-difluoro-2,2-dimethylpropyl)-4-(difluoromethoxy)pyridin-3-yl)-1-ethyl-N-(((1s,4s)-1-hydroxy-4-(methylsulfonyl)cyclohexyl)methyl)-1H-pyrazole-3-carboxamide]
0.012	0.14	–	86	CCn1nc(C(=O)NC[C@]2(O)CC[C@@H](S(C)(=O)=O)CC2)c(Cl)c1-c1cnc(O[C@H](C)C(F)(F)F)cc1OC [Example 63, 4-Chloro-1-ethyl-N-(((1r,4R)-1-hydroxy-4-(methylsulfonyl)cyclohexyl)methyl)-5-(4-methoxy-6-(((R)-1,1,1-trifluoropropan-2-yl)oxy)pyridin-3-yl)-1H-pyrazole-3-carboxamide]
0.018	0.14	100	–	CCn1nc(C(=O)NC[C@]2(O)CC[C@@H](S(C)(=O)=O)CC2)c(Cl)c1-c1cnc(C[C@@H](C)C(F)(F)F)cc1OC(F)F (single isomer, unassigned) [Example 18, 4-Chloro-5-(4-(difluoromethoxy)-6-((R*)-3,3,3-trifluoro-2-methylpropyl)pyridin-3-yl)-1-ethyl-N-(((1s,4S)-1-hydroxy-4-(methylsulfonyl)cyclohexyl)methyl)-1H-pyrazole-3-carboxamide]
0.002	0.0057	101	–	CCn1nc(C(=O)NC[C@@]2(O)CC[C@H](S(C)(=O)=O)C[C@@H]2O)c(Cl)c1-c1ccc(CC(C)(C)C(F)(F)F)nc1OC(F)F (stereo in doubt) [Example 48, 4-Chloro-5-(2-(difluoromethoxy)-6-(3,3,3-trifluoro-2,2-dimethylpropyl)pyridin-3-yl)-N-(((1S*,2S*,4S*)-1,2-dihydroxy-4-(methylsulfonyl)cyclohexyl)methyl)-1-ethyl-1H-pyrazole-3-carboxamide]
0.04	0.57	84	–	CCn1nc(C(=O)NC[C@]2(O)CC[C@@H](S(C)(=O)=O)C[C@H]2O)c(Cl)c1-c1cnc(CC(C)(C)C(F)F)cc1OC(F)F (stereo in doubt) [Example 40, 4-Chloro-5-(6-(3,3-difluoro-2,2-dimethylpropyl)-4-(difluoromethoxy)pyridin-3-yl)-N-(((1R*,2R*,4R*)-1,2-dihydroxy-4-(methylsulfonyl)cyclohexyl)methyl)-1-ethyl-1H-pyrazole-3-carboxamide]
0.0047	0.058	85	–	CCn1nc(C(=O)NC[C@H]2CC[C@H](S(C)(=O)=O)CC2)c(Cl)c1-c1ncc(CC(C)(C)C(F)(F)F)cc1OC(F)F [Example 52, 4-Chloro-5-(3-(difluoromethoxy)-5-(3,3,3-trifluoro-2,2-dimethylpropyl)pyridin-2-yl)-1-ethyl-N-(((1r,4r)-4-(methylsulfonyl)cyclohexyl)methyl)-1H-pyrazole-3-carboxamide]
